Source: the kinase profiling compilation of Christmann-Franck et al. (2016)

Legend:
[1] = molecular target: PIP4K2A (human) (UniProt P48426); experiment: ADP detection assay-Luminescence
[2] = molecular target: CHKB (human) (UniProt Q9Y259); experiment: ADP detection assay-Luminescence
[3] = molecular target: PIK3CD PIK3R1 (human) (UniProt O00329+P27986); experiment: ADP detection assay-Luminescence
[4] = molecular target: SPHK1 (human) (UniProt Q9NYA1); experiment: ADP detection assay-Luminescence
[5] = molecular target: DGKB (human) (UniProt Q9Y6T7); experiment: ADP detection assay-Luminescence
[6] = molecular target: PIK3CB PIK3R1 (human) (UniProt P27986+P42338); experiment: ADP detection assay-Luminescence
[7] = molecular target: DGKZ (human) (UniProt Q13574); experiment: ADP detection assay-Luminescence
[8] = molecular target: DGKG (human) (UniProt P49619); experiment: ADP detection assay-Luminescence
[9] = molecular target: PI4KA (human) (UniProt P42356); experiment: ADP detection assay-Luminescence
PI4KA (human), sequence (P42356 whole entry, looked up): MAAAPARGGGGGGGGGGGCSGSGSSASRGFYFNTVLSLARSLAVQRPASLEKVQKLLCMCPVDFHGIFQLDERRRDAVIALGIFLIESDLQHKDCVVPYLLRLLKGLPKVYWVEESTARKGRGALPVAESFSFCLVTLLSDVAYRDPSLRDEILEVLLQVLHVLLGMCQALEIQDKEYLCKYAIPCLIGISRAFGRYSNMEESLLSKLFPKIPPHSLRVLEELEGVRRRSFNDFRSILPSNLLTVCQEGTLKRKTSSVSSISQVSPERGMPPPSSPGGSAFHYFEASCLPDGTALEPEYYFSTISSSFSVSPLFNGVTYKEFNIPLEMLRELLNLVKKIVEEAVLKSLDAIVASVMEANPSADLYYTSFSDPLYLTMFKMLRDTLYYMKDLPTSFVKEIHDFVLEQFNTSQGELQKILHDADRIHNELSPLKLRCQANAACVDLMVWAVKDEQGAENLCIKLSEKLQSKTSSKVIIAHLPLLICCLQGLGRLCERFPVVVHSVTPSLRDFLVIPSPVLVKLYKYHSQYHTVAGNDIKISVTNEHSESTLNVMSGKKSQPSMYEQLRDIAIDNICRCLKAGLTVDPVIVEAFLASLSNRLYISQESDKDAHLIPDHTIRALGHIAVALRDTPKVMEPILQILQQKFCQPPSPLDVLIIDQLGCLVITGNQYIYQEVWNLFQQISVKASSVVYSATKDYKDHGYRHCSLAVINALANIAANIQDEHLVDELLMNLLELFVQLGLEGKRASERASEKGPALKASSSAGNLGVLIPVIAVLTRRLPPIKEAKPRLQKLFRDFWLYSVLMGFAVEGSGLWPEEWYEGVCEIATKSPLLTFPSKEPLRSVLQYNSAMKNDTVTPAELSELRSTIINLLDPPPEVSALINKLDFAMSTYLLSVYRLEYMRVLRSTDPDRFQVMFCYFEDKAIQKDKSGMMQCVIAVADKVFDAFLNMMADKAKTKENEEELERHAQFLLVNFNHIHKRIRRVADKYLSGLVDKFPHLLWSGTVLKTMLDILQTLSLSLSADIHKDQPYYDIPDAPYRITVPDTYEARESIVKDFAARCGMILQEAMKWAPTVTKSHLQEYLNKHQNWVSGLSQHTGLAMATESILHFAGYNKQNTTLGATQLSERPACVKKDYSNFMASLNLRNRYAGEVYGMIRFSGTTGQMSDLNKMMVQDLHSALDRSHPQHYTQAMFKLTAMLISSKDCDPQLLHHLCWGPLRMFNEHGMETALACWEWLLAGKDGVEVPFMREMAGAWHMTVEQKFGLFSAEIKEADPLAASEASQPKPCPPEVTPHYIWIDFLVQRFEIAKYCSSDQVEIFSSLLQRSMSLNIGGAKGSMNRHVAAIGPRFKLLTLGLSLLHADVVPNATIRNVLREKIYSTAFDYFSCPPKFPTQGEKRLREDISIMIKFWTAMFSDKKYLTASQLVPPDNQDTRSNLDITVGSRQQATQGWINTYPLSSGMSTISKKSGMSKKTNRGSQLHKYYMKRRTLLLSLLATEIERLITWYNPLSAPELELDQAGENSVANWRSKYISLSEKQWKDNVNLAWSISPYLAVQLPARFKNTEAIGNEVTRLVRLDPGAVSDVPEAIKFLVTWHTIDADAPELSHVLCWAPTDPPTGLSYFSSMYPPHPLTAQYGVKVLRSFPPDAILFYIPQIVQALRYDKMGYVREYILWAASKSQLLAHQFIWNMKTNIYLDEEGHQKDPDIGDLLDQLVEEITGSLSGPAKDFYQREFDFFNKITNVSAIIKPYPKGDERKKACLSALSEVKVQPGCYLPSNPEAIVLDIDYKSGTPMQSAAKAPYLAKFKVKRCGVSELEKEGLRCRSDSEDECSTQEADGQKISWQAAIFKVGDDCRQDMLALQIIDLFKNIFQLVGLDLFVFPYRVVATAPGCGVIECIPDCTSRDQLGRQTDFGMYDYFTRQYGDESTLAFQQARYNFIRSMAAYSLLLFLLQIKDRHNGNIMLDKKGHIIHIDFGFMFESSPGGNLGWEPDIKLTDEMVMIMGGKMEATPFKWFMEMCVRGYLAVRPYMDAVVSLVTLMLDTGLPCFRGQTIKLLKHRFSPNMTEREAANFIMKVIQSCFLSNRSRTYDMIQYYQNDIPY

[10] = molecular target: PIK3CA PIK3R1 (human) (UniProt P27986+P42336); experiment: ADP detection assay-Luminescence
[11] = molecular target: PI4KB (human) (UniProt Q9UBF8); experiment: ADP detection assay-Luminescence
[12] = molecular target: PIK3CG (human) (UniProt P48736); experiment: ADP detection assay-Luminescence
[13] = molecular target: CHKA (human) (UniProt P35790); experiment: ADP detection assay-Luminescence
[14] = molecular target: PIK3C3 (human) (UniProt Q8NEB9); experiment: ADP detection assay-Luminescence
[15] = molecular target: SPHK2 (human) (UniProt Q9NRA0); experiment: ADP detection assay-Luminescence
[16] = molecular target: CHEK2 (human) (UniProt O96017); experiment: radiometric filter-binding kinase assay
[17] = system: LCK (mouse); experiment: radiometric filter-binding kinase assay; conditions: accession and sequence are those of the human protein
[18] = molecular target: GCK (human) (UniProt Q12851); experiment: radiometric filter-binding kinase assay
[19] = molecular target: MAPK10 (human) (UniProt P53779); experiment: radiometric filter-binding kinase assay
MAPK10 (human), sequence (P53779 whole entry, looked up): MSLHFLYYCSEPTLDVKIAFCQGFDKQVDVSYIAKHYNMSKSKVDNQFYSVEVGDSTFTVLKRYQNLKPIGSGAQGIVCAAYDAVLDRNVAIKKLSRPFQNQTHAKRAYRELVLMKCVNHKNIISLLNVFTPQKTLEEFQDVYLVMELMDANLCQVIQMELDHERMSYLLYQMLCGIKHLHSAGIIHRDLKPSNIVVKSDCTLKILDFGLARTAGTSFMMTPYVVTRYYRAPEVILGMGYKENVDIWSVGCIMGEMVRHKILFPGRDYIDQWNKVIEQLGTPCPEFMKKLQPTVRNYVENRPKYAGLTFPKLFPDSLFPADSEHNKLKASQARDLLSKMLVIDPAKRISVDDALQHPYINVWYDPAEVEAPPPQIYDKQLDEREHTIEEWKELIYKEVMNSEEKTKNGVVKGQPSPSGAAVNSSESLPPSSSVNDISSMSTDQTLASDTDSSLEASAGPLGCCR

[20] = molecular target: MAPKAPK2 (human) (UniProt P49137); experiment: radiometric filter-binding kinase assay
[21] = molecular target: MAPK12 (human) (UniProt P53778); experiment: radiometric filter-binding kinase assay
MAPK12 (human), sequence (P53778 whole entry, looked up): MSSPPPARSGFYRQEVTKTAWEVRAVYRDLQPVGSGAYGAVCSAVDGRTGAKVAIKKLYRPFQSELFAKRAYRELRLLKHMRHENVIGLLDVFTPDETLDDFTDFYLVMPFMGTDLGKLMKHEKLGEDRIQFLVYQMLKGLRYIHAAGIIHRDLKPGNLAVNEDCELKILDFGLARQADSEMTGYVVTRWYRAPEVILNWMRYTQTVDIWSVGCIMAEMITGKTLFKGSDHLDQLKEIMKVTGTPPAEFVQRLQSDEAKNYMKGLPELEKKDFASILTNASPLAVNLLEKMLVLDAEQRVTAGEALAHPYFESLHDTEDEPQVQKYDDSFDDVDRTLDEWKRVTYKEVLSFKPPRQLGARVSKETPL

[22] = molecular target: PIM3 (human) (UniProt Q86V86); experiment: radiometric filter-binding kinase assay
[23] = molecular target: MAPK9 (human) (UniProt P45984); experiment: radiometric filter-binding kinase assay
[24] = molecular target: IRAK4 (human) (UniProt Q9NWZ3); experiment: radiometric filter-binding kinase assay
[25] = molecular target: NUAK1 (human) (UniProt O60285); experiment: radiometric filter-binding kinase assay
[26] = molecular target: DYRK2 (human) (UniProt Q92630); experiment: radiometric filter-binding kinase assay
[27] = molecular target: BRSK1 (human) (UniProt Q8TDC3); experiment: radiometric filter-binding kinase assay
[28] = molecular target: FLT1 (human) (UniProt P17948); experiment: radiometric filter-binding kinase assay
FLT1 (human), sequence (P17948 whole entry, looked up): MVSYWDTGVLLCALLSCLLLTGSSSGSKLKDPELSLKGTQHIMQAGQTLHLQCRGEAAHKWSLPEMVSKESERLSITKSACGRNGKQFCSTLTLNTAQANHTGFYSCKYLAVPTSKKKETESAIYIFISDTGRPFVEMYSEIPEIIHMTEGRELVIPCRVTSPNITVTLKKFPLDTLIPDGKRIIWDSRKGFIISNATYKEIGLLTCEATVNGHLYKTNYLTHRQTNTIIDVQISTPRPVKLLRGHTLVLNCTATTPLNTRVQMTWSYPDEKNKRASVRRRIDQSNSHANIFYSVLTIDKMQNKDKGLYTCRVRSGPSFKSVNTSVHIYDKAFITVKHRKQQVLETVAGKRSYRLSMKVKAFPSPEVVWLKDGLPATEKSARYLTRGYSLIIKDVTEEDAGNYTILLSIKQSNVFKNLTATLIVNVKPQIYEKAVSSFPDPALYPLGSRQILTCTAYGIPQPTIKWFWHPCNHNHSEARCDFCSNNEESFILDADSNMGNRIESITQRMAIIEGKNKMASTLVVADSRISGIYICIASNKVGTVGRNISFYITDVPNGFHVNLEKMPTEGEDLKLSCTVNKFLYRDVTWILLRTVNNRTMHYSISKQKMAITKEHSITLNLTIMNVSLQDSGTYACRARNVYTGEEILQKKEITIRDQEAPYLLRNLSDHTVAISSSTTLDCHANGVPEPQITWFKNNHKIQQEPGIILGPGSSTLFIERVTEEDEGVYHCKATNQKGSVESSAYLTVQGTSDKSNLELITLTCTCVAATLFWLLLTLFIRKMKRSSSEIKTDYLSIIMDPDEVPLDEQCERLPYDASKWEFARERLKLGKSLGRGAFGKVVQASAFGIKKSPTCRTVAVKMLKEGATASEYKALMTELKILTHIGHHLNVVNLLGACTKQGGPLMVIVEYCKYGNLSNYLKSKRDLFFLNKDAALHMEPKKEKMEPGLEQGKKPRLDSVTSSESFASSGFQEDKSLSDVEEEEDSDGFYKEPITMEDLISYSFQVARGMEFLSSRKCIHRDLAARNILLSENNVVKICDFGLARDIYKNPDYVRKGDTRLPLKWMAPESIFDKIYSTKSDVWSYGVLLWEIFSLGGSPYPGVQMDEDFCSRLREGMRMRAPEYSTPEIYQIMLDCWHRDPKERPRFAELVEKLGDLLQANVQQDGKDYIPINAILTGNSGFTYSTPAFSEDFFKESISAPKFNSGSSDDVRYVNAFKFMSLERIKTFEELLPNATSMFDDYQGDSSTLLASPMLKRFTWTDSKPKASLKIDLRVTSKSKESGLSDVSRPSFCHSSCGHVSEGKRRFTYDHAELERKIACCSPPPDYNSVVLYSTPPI

[29] = molecular target: HIPK2 (human) (UniProt Q9H2X6); experiment: radiometric filter-binding kinase assay

PIP4K2A (human), sequence (P48426 whole entry, looked up): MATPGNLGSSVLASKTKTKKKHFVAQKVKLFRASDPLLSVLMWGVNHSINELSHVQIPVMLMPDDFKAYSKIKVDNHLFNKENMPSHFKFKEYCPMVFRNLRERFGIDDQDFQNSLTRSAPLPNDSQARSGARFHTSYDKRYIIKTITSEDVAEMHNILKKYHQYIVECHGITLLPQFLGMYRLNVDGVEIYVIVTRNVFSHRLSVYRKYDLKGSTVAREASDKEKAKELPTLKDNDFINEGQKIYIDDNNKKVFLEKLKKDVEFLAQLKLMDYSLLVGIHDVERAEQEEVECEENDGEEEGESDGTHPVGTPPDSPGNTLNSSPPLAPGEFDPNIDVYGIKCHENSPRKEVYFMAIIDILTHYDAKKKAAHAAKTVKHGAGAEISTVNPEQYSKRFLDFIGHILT

residual activity ([1]; compound 0.1 µM): 102% | residual activity ([1]; compound 1.0 µM): 97% | residual activity ([1]; compound 10.0 µM): 86% | residual activity ([2]; compound 0.1 µM): 113% | residual activity ([2]; compound 1.0 µM): 95% | residual activity ([2]; compound 10.0 µM): 87% | residual activity ([3]; compound 0.1 µM): 119% | residual activity ([3]; compound 1.0 µM): 104% | residual activity ([3]; compound 10.0 µM): 73% | residual activity ([4]; compound 0.1 µM): 106% | residual activity ([4]; compound 1.0 µM): 102% | residual activity ([4]; compound 10.0 µM): 94% | residual activity ([5]; compound 0.1 µM): 99% | residual activity ([5]; compound 1.0 µM): 100% | residual activity ([5]; compound 10.0 µM): 93% | residual activity ([6]; compound 0.1 µM): 102% | residual activity ([6]; compound 1.0 µM): 108% | residual activity ([6]; compound 10.0 µM): 97% | residual activity ([7]; compound 0.1 µM): 110% | residual activity ([7]; compound 1.0 µM): 86% | residual activity ([7]; compound 10.0 µM): 101% | residual activity ([8]; compound 0.1 µM): 99% | residual activity ([8]; compound 1.0 µM): 100% | residual activity ([8]; compound 10.0 µM): 101% | residual activity ([9]; compound 0.1 µM): 100% | residual activity ([9]; compound 1.0 µM): 94% | residual activity ([9]; compound 10.0 µM): 103% | residual activity ([10]; compound 0.1 µM): 106% | residual activity ([10]; compound 1.0 µM): 105% | residual activity ([10]; compound 10.0 µM): 104% | residual activity ([11]; compound 0.1 µM): 99% | residual activity ([11]; compound 1.0 µM): 89% | residual activity ([11]; compound 10.0 µM): 97% | residual activity ([12]; compound 0.1 µM): 98% | residual activity ([12]; compound 1.0 µM): 83% | residual activity ([12]; compound 10.0 µM): 70% | residual activity ([13]; compound 0.1 µM): 102% | residual activity ([13]; compound 1.0 µM): 94% | residual activity ([13]; compound 10.0 µM): 101% | residual activity ([14]; compound 0.1 µM): 96% | residual activity ([14]; compound 1.0 µM): 102% | residual activity ([14]; compound 10.0 µM): 89% | residual activity ([15]; compound 0.1 µM): 103% | residual activity ([15]; compound 1.0 µM): 100% | residual activity ([15]; compound 10.0 µM): 91% | residual activity ([16]; compound 0.01 µM): 129% | residual activity ([16]; compound 0.1 µM): 121% | residual activity ([17]; compound 0.01 µM): 112% | residual activity ([17]; compound 0.1 µM): 107% | residual activity ([17]; compound 1.0 µM): 114% | residual activity ([18]; compound 0.01 µM): 109% | residual activity ([18]; compound 0.1 µM): 116% | residual activity ([18]; compound 1.0 µM): 101% | residual activity ([19]; compound 0.01 µM): 106% | residual activity ([19]; compound 0.1 µM): 106% | residual activity ([19]; compound 1.0 µM): 100% | residual activity ([20]; compound 0.01 µM): 104% | residual activity ([20]; compound 0.1 µM): 111% | residual activity ([20]; compound 1.0 µM): 101% | residual activity ([21]; compound 0.01 µM): 109% | residual activity ([21]; compound 0.1 µM): 110% | residual activity ([21]; compound 1.0 µM): 106% | residual activity ([22]; compound 0.01 µM): 105% | residual activity ([22]; compound 0.1 µM): 112% | residual activity ([22]; compound 1.0 µM): 97% | residual activity ([23]; compound 0.01 µM): 117% | residual activity ([23]; compound 0.1 µM): 126% | residual activity ([23]; compound 1.0 µM): 120% | residual activity ([24]; compound 0.01 µM): 109% | residual activity ([24]; compound 0.1 µM): 112% | residual activity ([24]; compound 1.0 µM): 106% | residual activity ([25]; compound 0.01 µM): 120% | residual activity ([25]; compound 0.1 µM): 105% | residual activity ([25]; compound 1.0 µM): 47% | residual activity ([26]; compound 0.01 µM): 100% | residual activity ([26]; compound 0.1 µM): 108% | residual activity ([26]; compound 1.0 µM): 102% | residual activity ([27]; compound 0.01 µM): 110% | residual activity ([27]; compound 0.1 µM): 95% | residual activity ([27]; compound 1.0 µM): 57% | residual activity ([28]; compound 0.01 µM): 98% | residual activity ([28]; compound 0.1 µM): 108% | residual activity ([28]; compound 1.0 µM): 89% | residual activity ([29]; compound 0.01 µM): 119% | residual activity ([29]; compound 0.1 µM): 124% | residual activity ([29]; compound 1.0 µM): 113%
Compound: CNc1nc(-c2ccc3c(N)n[nH]c3c2)cc(N2C[C@@H](C(=O)NC3CCCCC3)CC[C@H]2C)n1
